Source: ChEMBL document CHEMBL2046397, “Design and synthesis of 5-(substituted benzylidene)thiazolidine-2,4-dione derivatives as novel tyrosinase inhibitors” (Eur J Med Chem, 2012)
Calls of active or inactive are those of the source. The rule behind the calls is not given here.

Columns and labels:
[1] = target: T1, Tyrosinase (Agaricus bisporus) (UniProt O42713); experiment: Competitive inhibition of mushroom tyrosinase using L-tyrosine as substrate at 1.25 uM by Line-Weaver-Burk plot analysis
T1 sequence (whole entry): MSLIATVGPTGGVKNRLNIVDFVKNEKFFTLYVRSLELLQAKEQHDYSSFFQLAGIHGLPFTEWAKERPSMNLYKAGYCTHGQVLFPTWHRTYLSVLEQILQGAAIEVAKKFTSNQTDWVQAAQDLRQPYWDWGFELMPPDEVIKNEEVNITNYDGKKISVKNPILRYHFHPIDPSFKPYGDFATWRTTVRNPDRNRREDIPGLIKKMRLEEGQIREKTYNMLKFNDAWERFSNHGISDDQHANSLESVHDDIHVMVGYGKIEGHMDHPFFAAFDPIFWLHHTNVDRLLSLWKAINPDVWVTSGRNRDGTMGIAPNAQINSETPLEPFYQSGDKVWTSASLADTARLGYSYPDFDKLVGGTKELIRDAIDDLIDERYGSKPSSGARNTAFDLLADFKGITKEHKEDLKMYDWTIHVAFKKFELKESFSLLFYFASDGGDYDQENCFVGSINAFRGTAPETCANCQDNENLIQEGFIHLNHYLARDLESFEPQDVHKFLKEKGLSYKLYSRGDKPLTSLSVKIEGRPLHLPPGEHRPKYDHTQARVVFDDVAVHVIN

[2] = target: T1, Tyrosinase (Agaricus bisporus); experiment: Competitive inhibition of mushroom tyrosinase using L-tyrosine as substrate assessed increase in Km L-tyrosine by Line-Weaver-Burk plot analysis
[3] = tested on: B16; experiment: Antimelanogenic activity in mouse B16 cells assessed as inhibition of alpha-MSH-induced melanin formation after 24 hrs by spectrophotometric assay; type: functional, cell-based
[4] = target: T2, Tyrosinase (Mus musculus) (UniProt P11344); experiment: Inhibition of MSHalpha-stimulated tyrosinase activity in mouse B16 cells using L-DOPA as substrate after 24 hrs by […]; type: cell-based
T2 sequence (whole entry): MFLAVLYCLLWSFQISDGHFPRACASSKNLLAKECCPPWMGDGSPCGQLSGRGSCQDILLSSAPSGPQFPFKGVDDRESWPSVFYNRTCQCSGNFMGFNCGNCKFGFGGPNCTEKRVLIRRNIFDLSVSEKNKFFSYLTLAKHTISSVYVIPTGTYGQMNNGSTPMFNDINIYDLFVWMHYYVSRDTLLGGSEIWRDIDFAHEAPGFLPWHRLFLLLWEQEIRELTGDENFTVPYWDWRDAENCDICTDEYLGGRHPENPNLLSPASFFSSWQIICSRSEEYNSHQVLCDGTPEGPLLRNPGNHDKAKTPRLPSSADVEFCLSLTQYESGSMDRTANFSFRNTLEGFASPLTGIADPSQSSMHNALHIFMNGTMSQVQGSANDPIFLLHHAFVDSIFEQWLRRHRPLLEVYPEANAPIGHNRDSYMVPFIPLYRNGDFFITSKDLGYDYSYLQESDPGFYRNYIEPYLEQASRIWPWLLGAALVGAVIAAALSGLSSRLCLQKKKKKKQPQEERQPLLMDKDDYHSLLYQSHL

[5] = target: T3, Tyrosinase (Agaricus bisporus, UniProt O42713); experiment: Inhibition of mushroom tyrosinase activity using L-tyrosine as substrate after 30 mins by spectrophotometric analysis
T3 sequence (O42713 whole entry): T1 sequence (whole entry)

[6] = target: T1, Tyrosinase (Agaricus bisporus); experiment: Competitive inhibition of mushroom tyrosinase using L-tyrosine as substrate at 20 uM by Line-Weaver-Burk plot analysis
[7] = tested on: B16; experiment: Cytotoxicity against mouse B16 cells at 0.1 to 10 uM after 8 hrs by MTT assay; type: cell-based; conditions: b16, 8 h

| Structure (SMILES) | Kic [1] | inhibition [2] | inhibition [3] | inhibition [4] | IC50 [5] | Kic [6] | Activity [7] |
| --- | --- | --- | --- | --- | --- | --- | --- |
| O=C1NC(=O)/C(=C/c2ccc(O)cc2)S1 | 3.74 ×10⁻⁷ M | Active | Dose-dependent effect | Active | 13.4 µM | 0.84 µM | Non-toxic |
| COc1ccc(/C=C2\SC(=O)NC2=O)cc1O | 4.13 ×10⁻⁷ M | Active | Dose-dependent effect | Active | 9.87 µM | 1.38 µM | Non-toxic |
